Data from the NIST ThermoML archive (doi:10.1016/j.jct.2004.12.008).

Test: xn = mol fraction of the nth substance listed
Conditions: 101 kPa, Liquid

O=[N+]([O-])c1ccccc1 [nitrobenzene] + Cc1ccccc1C
Conditions	mass density [kg/m3]
293.15 K, x2 = 0	1202.95
293.15 K, x2 = 0.0498	1184.47
293.15 K, x2 = 0.1289	1155.75
293.15 K, x2 = 0.1892	1134.33
293.15 K, x2 = 0.2532	1112.04
293.15 K, x2 = 0.3234	1088.07
293.15 K, x2 = 0.3891	1066.07
293.15 K, x2 = 0.4421	1048.61
293.15 K, x2 = 0.4923	1032.31
293.15 K, x2 = 0.5534	1012.76
293.15 K, x2 = 0.6132	993.93
293.15 K, x2 = 0.6734	975.26
293.15 K, x2 = 0.7321	957.32
293.15 K, x2 = 0.7931	938.95
293.15 K, x2 = 0.8523	921.38
293.15 K, x2 = 0.9323	898.02
303.15 K, x2 = 0	1193.56
303.15 K, x2 = 0.0535	1173.86
303.15 K, x2 = 0.1123	1152.62
303.15 K, x2 = 0.1782	1129.29
303.15 K, x2 = 0.2423	1107.06
303.15 K, x2 = 0.3139	1082.76
303.15 K, x2 = 0.3687	1064.49
303.15 K, x2 = 0.4348	1042.84
303.15 K, x2 = 0.5023	1021.14
303.15 K, x2 = 0.5681	1000.36
303.15 K, x2 = 0.6189	984.56
303.15 K, x2 = 0.6892	963.04
303.15 K, x2 = 0.7422	947.07
303.15 K, x2 = 0.8021	929.26
303.15 K, x2 = 0.8731	908.5
303.15 K, x2 = 0.9298	892.17
313.15 K, x2 = 0	1183.37
313.15 K, x2 = 0.0621	1160.16
313.15 K, x2 = 0.1298	1135.44
313.15 K, x2 = 0.1924	1113.1
313.15 K, x2 = 0.2499	1092.98
313.15 K, x2 = 0.3234	1067.82
313.15 K, x2 = 0.3891	1045.81
313.15 K, x2 = 0.4348	1030.76
313.15 K, x2 = 0.5109	1006.14
313.15 K, x2 = 0.5782	984.82
313.15 K, x2 = 0.6328	967.81
313.15 K, x2 = 0.6902	950.21
313.15 K, x2 = 0.7591	929.44
313.15 K, x2 = 0.8244	910.1
313.15 K, x2 = 0.8823	893.22
313.15 K, x2 = 0.9357	877.88
323.15 K, x2 = 0	1172.38
323.15 K, x2 = 0.0634	1147.74
323.15 K, x2 = 0.1244	1124.62
323.15 K, x2 = 0.1824	1103.12
323.15 K, x2 = 0.2311	1085.44
323.15 K, x2 = 0.2893	1064.7
323.15 K, x2 = 0.3214	1053.45
323.15 K, x2 = 0.3855	1031.35
